2 compounds from patent publication US7214690B2, “Tricyclic quinolinone and tricyclic quinoline androgen receptor modulator compounds and methods” (Ligand Pharmaceuticals Incorporated, priority 2001, dated 2007) can be followed below.

The target of the experiment is T1, GR (Homo sapiens, UniProt P04150).
T1 construct: expressed in transfected cells; host or cells: background cell substantially devoid of endogenous IRs (CV-1 described for the co-transfection assay)
T1 sequence (P04150 1-777): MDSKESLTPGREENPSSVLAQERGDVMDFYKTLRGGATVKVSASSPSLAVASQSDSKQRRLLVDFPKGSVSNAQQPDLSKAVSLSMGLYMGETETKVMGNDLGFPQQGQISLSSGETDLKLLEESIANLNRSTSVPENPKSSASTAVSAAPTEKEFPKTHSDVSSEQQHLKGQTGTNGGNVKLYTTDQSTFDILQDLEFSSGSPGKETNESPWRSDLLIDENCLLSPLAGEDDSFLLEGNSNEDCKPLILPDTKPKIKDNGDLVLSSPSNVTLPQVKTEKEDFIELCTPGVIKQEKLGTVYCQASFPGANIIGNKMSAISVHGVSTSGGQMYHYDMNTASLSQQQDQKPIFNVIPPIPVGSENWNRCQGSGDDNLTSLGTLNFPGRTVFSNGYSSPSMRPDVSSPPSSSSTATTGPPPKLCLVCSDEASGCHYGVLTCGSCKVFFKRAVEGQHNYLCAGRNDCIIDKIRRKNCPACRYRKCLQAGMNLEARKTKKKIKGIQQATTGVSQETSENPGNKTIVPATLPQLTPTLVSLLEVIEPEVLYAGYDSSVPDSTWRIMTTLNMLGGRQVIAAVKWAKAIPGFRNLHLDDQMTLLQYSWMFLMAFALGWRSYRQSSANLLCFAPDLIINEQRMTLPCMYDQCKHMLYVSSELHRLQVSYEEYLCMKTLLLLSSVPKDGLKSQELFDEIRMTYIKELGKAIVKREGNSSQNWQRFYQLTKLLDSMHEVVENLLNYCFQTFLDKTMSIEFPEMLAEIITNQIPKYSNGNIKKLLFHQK
The experiment can be described thus: co-transfection assay, GR. In kind it is cell-based. As to the method: CV-1 cells (African green monkey kidney fibroblasts) were cultured in the presence of Dulbecco's Modified Eagle Medium (DMEM) supplemented with 10% charcoal resin-stripped fetal bovine serum (CH-FBS) then transferred to 96-well microtiter plates one day prior to transfection.
Three to four replicates were used for each sample.
After 40 hours, the cells were washed with PBS, lysed with a Triton X-100-based buffer and assayed for LUC and β-Gal activities using a luminometer or spectrophotometer, respectively. For each replicate, the normalized response (NR) was calculated as: LUC response/β-Gal rate • where β-Gal rate=β-Gal/β-Gal incubation time.

As to `C=CCN1c2ccc3[nH]c(=O)cc(C(F)(F)F)c3c2OC[C@H]1CC` [Compound 114, (3R)-4-Allyl-3-ethyl-2,3,4,7-tetrahydro-10-(trifluoromethyl)-8H-[1,4]oxazino[2,3-f]quinolin-8-one], 5.9 µM corresponded to half-maximal inhibition (IC50).

`CC(C)[C@@H]1COc2c(ccc3[nH]c(=O)cc(C(F)(F)F)c23)N1CC(F)(F)Cl` [Compound 124, (3R)-4-(2-Chloro-2,2-difluoroethyl)-2,3,4,7-tetrahydro-3-isopropyl-10-(trifluoromethyl)-8H-[1,4]oxazino[2,3-f]quinolin-8-one]: it took 2.4 µM to reach half-maximal inhibition (IC50).
